Source: paper PMC5218480 (PLoS ONE, 2017)

Test system: MV-4-11 cells
Assay: Gene expression microarray analysis (Affymetrix PrimeView) and GSEA
Format: cell-based, human
Design: RFU PODN (11730768_x_at) / Fold change /veh PODN (11730768_x_at) / RFU LINC00158 (11744669_a_at) / Fold change /veh LINC00158 (11744669_a_at) / RFU DUSP10 (11751237_a_at) / Fold change /veh DUSP10 (11751237_a_at) / RFU ID3 (11757404_x_at) / Fold change /veh ID3 (11757404_x_at) / RFU PLEKHG5 (11737974_s_at) / Fold change /veh PLEKHG5 (11737974_s_at) / RFU LRRC4B (11730491_at) / Fold change /veh LRRC4B (11730491_at) / RFU GIMAP4 (11747438_a_at) / Fold change /veh GIMAP4 (11747438_a_at) / RFU KRT8 (11758183_x_at) / Fold change /veh KRT8 (11758183_x_at) / RFU CNN1 (11734310_a_at) / Fold change /veh CNN1 (11734310_a_at) / RFU VPS37D (11726825_at) / Fold change /veh VPS37D (11726825_at) / RFU C10orf10 (11716522_x_at) / Fold change /veh C10orf10 (11716522_x_at) / RFU KIR2DL2 /// KIR2DL4 /// KIR2DL5A /// KIR2DL5B /// KIR2DS1 /// KIR2DS2 /// KIR2DS3 /// KIR2DS4 /// KIR3DL3 /// KIR3DL3 /// KIR3DS1 (11738374_at) / Fold change /veh KIR2DL2 /// KIR2DL4 /// KIR2DL5A /// KIR2DL5B /// KIR2DS1 /// KIR2DS2 /// KIR2DS3 /// KIR2DS4 /// KIR3DL3 /// KIR3DL3 /// KIR3DS1 (11738374_at) / RFU C1QL1 (11718748_at) / Fold change /veh C1QL1 (11718748_at) / RFU TMPRSS4 (11747572_a_at) / Fold change /veh TMPRSS4 (11747572_a_at) / RFU HAMP (11756126_x_at) / Fold change /veh HAMP (11756126_x_at) / RFU RNFT2 (11725882_a_at) / Fold change /veh RNFT2 (11725882_a_at) / RFU NR4A2 (11747474_a_at) / Fold change /veh NR4A2 (11747474_a_at) / RFU ABCC12 (11746883_a_at) / Fold change /veh ABCC12 (11746883_a_at) / RFU TMEM136 (11760407_x_at) / Fold change /veh TMEM136 (11760407_x_at) / RFU CLDN22 /// WWC2 (11732394_at) / Fold change /veh CLDN22 /// WWC2 (11732394_at) / RFU HLA-DPB1 (11760878_x_at) / Fold change /veh HLA-DPB1 (11760878_x_at) / RFU SPINT1 (11716480_a_at) / Fold change /veh SPINT1 (11716480_a_at) / RFU GAP43 (11754022_s_at) / Fold change /veh GAP43 (11754022_s_at) / RFU A4GNT (11735810_at) / Fold change /veh A4GNT (11735810_at) / RFU PRB3 (11715151_x_at) / Fold change /veh PRB3 (11715151_x_at) / RFU TUBB4B (11761932_at) / Fold change /veh TUBB4B (11761932_at) / RFU CAPN14 (11732068_a_at) / Fold change /veh CAPN14 (11732068_a_at) / RFU TMCC2 (11721928_a_at) / Fold change /veh TMCC2 (11721928_a_at) / RFU IRGQ (11745062_a_at) / Fold change /veh IRGQ (11745062_a_at) / RFU FAM174B (11720279_a_at) / Fold change /veh FAM174B (11720279_a_at) / RFU TMPRSS4 (11748680_a_at) / Fold change /veh TMPRSS4 (11748680_a_at) / RFU FAM212B (11763350_a_at) / Fold change /veh FAM212B (11763350_a_at) / RFU PLEKHG5 (11743358_a_at) / Fold change /veh PLEKHG5 (11743358_a_at) / RFU ZSCAN30 (11745921_a_at) / Fold change /veh ZSCAN30 (11745921_a_at) / RFU CMKLR1 (11741424_a_at) / Fold change /veh CMKLR1 (11741424_a_at) / RFU LOC101060620 /// MAPK8IP1 (11723275_at) / Fold change /veh LOC101060620 /// MAPK8IP1 (11723275_at) / RFU SPTSSB (11747773_x_at) / Fold change /veh SPTSSB (11747773_x_at) / RFU PRSS12 (11739890_at) / Fold change /veh PRSS12 (11739890_at) / RFU BIN1 (11741810_x_at) / Fold change /veh BIN1 (11741810_x_at) / RFU WNT11 (11732464_a_at) / Fold change /veh WNT11 (11732464_a_at) / RFU C10orf10 (11716521_a_at) / Fold change /veh C10orf10 (11716521_a_at) / RFU C5orf56 (11738089_at) / Fold change /veh C5orf56 (11738089_at) / RFU CYB561 (11721691_x_at) / Fold change /veh CYB561 (11721691_x_at) / RFU ANKRD19P (11752326_a_at) / Fold change /veh ANKRD19P (11752326_a_at) / RFU OR2T12 /// OR2T33 /// OR2T8 (11738714_s_at) / Fold change /veh OR2T12 /// OR2T33 /// OR2T8 (11738714_s_at) / RFU VCAN (11748164_a_at) / Fold change /veh VCAN (11748164_a_at) / RFU JSRP1 (11732532_at) / Fold change /veh JSRP1 (11732532_at) / RFU KRTAP10-11 (11738290_x_at) / Fold change /veh KRTAP10-11 (11738290_x_at) / RFU MYO3A (11730013_a_at) / Fold change /veh MYO3A (11730013_a_at) / RFU EBF3 (11725865_a_at) / Fold change /veh EBF3 (11725865_a_at) / RFU CAMK2N1 (11719241_x_at) / Fold change /veh CAMK2N1 (11719241_x_at) / RFU C5orf56 (11738088_a_at) / Fold change /veh C5orf56 (11738088_a_at) / RFU OLFML3 (11715873_a_at) / Fold change /veh OLFML3 (11715873_a_at) / RFU LOC100653217 /// NTM (11731650_a_at) / Fold change /veh LOC100653217 /// NTM (11731650_a_at) / RFU MAPK11 (11762145_a_at) / Fold change /veh MAPK11 (11762145_a_at) / RFU FIZ1 (11724087_x_at) / Fold change /veh FIZ1 (11724087_x_at) / RFU OASL (11726364_x_at) / Fold change /veh OASL (11726364_x_at) / RFU SOX15 (11748057_x_at) / Fold change /veh SOX15 (11748057_x_at) / RFU CD79A (11719716_a_at) / Fold change /veh CD79A (11719716_a_at) / RFU HIST1H1D (11736915_at) / Fold change /veh HIST1H1D (11736915_at) / RFU CASKIN2 (11723855_a_at) / Fold change /veh CASKIN2 (11723855_a_at) / RFU LOC730098 (11760151_x_at) / Fold change /veh LOC730098 (11760151_x_at) / RFU OR4N2 (11742367_at) / Fold change /veh OR4N2 (11742367_at) / RFU PRRT2 (11749266_a_at) / Fold change /veh PRRT2 (11749266_a_at) / RFU SNX32 (11753110_a_at) / Fold change /veh SNX32 (11753110_a_at) / RFU CDHR5 (11726645_a_at) / Fold change /veh CDHR5 (11726645_a_at) / RFU RCAN1 (11760418_a_at) / Fold change /veh RCAN1 (11760418_a_at) / RFU FAM167A (11723789_a_at) / Fold change /veh FAM167A (11723789_a_at) / RFU FAM26E (11764081_at) / Fold change /veh FAM26E (11764081_at) / RFU ISYNA1 (11749810_s_at) / Fold change /veh ISYNA1 (11749810_s_at) / RFU ACY1 (11761880_at) / Fold change /veh ACY1 (11761880_at) / RFU 11764098_at / Fold change /veh 11764098_at / RFU SAMD14 (11745864_x_at) / Fold change /veh SAMD14 (11745864_x_at) / RFU NPB (11741838_a_at) / Fold change /veh NPB (11741838_a_at) / RFU TMPRSS6 (11731388_a_at) / Fold change /veh TMPRSS6 (11731388_a_at) / RFU KRTAP10-2 (11738614_at) / Fold change /veh KRTAP10-2 (11738614_at) / RFU ARHGAP8 /// PRR5-ARHGAP8 (11727945_x_at) / Fold change /veh ARHGAP8 /// PRR5-ARHGAP8 (11727945_x_at) / RFU KRTAP5-7 /// NADSYN1 (11734609_at) / Fold change /veh KRTAP5-7 /// NADSYN1 (11734609_at) / RFU RASL12 (11751679_a_at) / Fold change /veh RASL12 (11751679_a_at) / RFU CDKN2B (11736163_a_at) / Fold change /veh CDKN2B (11736163_a_at) / RFU PRF1 (11729649_at) / Fold change /veh PRF1 (11729649_at) / RFU, ZNF638 /// ZNF638-IT1 / Fold change vs veh, ZNF638 /// ZNF638-IT1 / RFU, PANK3 / Fold change vs veh, PANK3 / RFU, SH3YL1 / Fold change vs veh, SH3YL1 / RFU, ZEB2 / Fold change vs veh, ZEB2 / RFU, NRIP1 / Fold change vs veh, NRIP1 / RFU, PTTG1IP / Fold change vs veh, PTTG1IP / RFU, CAPN2 / Fold change vs veh, CAPN2 / RFU, MED14 / Fold change vs veh, MED14 / RFU, SNORA58 / Fold change vs veh, SNORA58 / RFU, C1orf63 / Fold change vs veh, C1orf63 / RFU, LRRFIP1 / Fold change vs veh, LRRFIP1 / RFU, NDUFAF7 / Fold change vs veh, NDUFAF7 / RFU, SLC12A2 / Fold change vs veh, SLC12A2 / RFU, IBTK / Fold change vs veh, IBTK / RFU, ESF1 / Fold change vs veh, ESF1 / Fold change vs veh, TMEM50B / RFU, TAOK1 / Fold change vs veh, TAOK1 / RFU, ACBD3 / Fold change vs veh, ACBD3 / RFU, TMA16 / Fold change vs veh, TMA16 / RFU, RWDD3 / Fold change vs veh, RWDD3 / RFU, BCAT1 / Fold change vs veh, BCAT1 / RFU, EDEM3 / Fold change vs veh, EDEM3 / RFU, TMEM33 / Fold change vs veh, TMEM33 / RFU, WDR75 / Fold change vs veh, WDR75 / RFU, AHCTF1 / Fold change vs veh, AHCTF1 / RFU, TFRC / Fold change vs veh, TFRC / RFU, ZDHHC17 / Fold change vs veh, ZDHHC17 / RFU, NOM1 / Fold change vs veh, NOM1 / RFU, ARL8B / Fold change vs veh, ARL8B / RFU, ZBTB11 / Fold change vs veh, ZBTB11 / RFU, TAMM41 / Fold change vs veh, TAMM41 / RFU, KIAA1704 /// LOC100996395 / Fold change vs veh, KIAA1704 /// LOC100996395 / RFU, ING1 / Fold change vs veh, ING1 / RFU, TRMT61B / Fold change vs veh, TRMT61B / RFU, FUBP3 / Fold change vs veh, FUBP3 / RFU, TP53 / Fold change vs veh, TP53 / RFU, TNKS2 / Fold change vs veh, TNKS2 / RFU, ZFP14 / Fold change vs veh, ZFP14 / RFU, ACTR2 / Fold change vs veh, ACTR2 / RFU, PPP3R1 / Fold change vs veh, PPP3R1 / RFU, PIK3R1 / Fold change vs veh, PIK3R1 / RFU, HNRNPA1 / Fold change vs veh, HNRNPA1 / RFU, RNF170 / Fold change vs veh, RNF170 / RFU, ZNF28 / Fold change vs veh, ZNF28 / RFU, RNGTT / Fold change vs veh, RNGTT / RFU, OGT / Fold change vs veh, OGT / RFU, BRD1 / Fold change vs veh, BRD1 / RFU, MARS / Fold change vs veh, MARS / RFU, ZNF655 / Fold change vs veh, ZNF655 / RFU, FAHD1 / Fold change vs veh, FAHD1 / RFU, BDP1 / Fold change vs veh, BDP1 / RFU, LRRCC1 / Fold change vs veh, LRRCC1 / RFU, ARID1A / Fold change vs veh, ARID1A / RFU, ZNF146 / Fold change vs veh, ZNF146 / RFU, ZNF330 / Fold change vs veh, ZNF330 / RFU, GPN3 / Fold change vs veh, GPN3 / RFU, C9orf123 / Fold change vs veh, C9orf123 / RFU, N4BP2L2 / Fold change vs veh, N4BP2L2 / RFU, ARFIP1 / Fold change vs veh, ARFIP1 / RFU, FAM179B / Fold change vs veh, FAM179B / RFU, BCL10 / Fold change vs veh, BCL10 / RFU, UHRF1BP1L / Fold change vs veh, UHRF1BP1L / RFU, BET1 / Fold change vs veh, BET1 / RFU, CNOT2 / Fold change vs veh, CNOT2 / RFU, ZNF268 / Fold change vs veh, ZNF268 / Fold change vs veh, ZNF507 / RFU, DGCR2 / Fold change vs veh, DGCR2 / RFU, WDSUB1 / Fold change vs veh, WDSUB1 / Fold change vs veh, HSP90B1 /// MIR3652 / RFU, ADSS / Fold change vs veh, ADSS / RFU, GK / Fold change vs veh, GK / RFU, ZNF148 / Fold change vs veh, ZNF148 / RFU, TAF9 / Fold change vs veh, TAF9 / RFU, SLC1A5 / Fold change vs veh, SLC1A5 / RFU, SLMO2 / Fold change vs veh, SLMO2 / RFU, ABCC4 / Fold change vs veh, ABCC4 / RFU, LOC101060439 /// RAP1B / Fold change vs veh, LOC101060439 /// RAP1B / RFU, RFX7 / Fold change vs veh, RFX7 / RFU, GTPBP10 / Fold change vs veh, GTPBP10 / RFU, CNEP1R1 / Fold change vs veh, CNEP1R1 / RFU, BIVM-ERCC5 /// ERCC5 / Fold change vs veh, BIVM-ERCC5 /// ERCC5 / RFU, ILF3 / Fold change vs veh, ILF3 / RFU 11762660_at / Fold change /veh 11762660_at / RFU VCAN (11757783_s_at) / Fold change /veh VCAN (11757783_s_at) / RFU DDX43 (11728927_at) / Fold change /veh DDX43 (11728927_at) / RFU KRT8 (11758188_x_at) / Fold change /veh KRT8 (11758188_x_at) / RFU NKD1 (11759106_at) / Fold change /veh NKD1 (11759106_at) / RFU SRD5A1 (11742802_a_at) / Fold change /veh SRD5A1 (11742802_a_at) / RFU TPSAB1 /// TPSB2 (11721975_s_at) / Fold change /veh TPSAB1 /// TPSB2 (11721975_s_at) / RFU GSTM3 (11746129_a_at) / Fold change /veh GSTM3 (11746129_a_at) / RFU IL23R (11737362_x_at) / Fold change /veh IL23R (11737362_x_at) / RFU TMEM51 (11727254_a_at) / Fold change /veh TMEM51 (11727254_a_at) / RFU PIWIL2 (11732686_x_at) / Fold change /veh PIWIL2 (11732686_x_at) / RFU ORM1 (11744905_x_at) / Fold change /veh ORM1 (11744905_x_at) / RFU CCDC152 (11743942_at) / Fold change /veh CCDC152 (11743942_at) / RFU ECM1 (11717891_a_at) / Fold change /veh ECM1 (11717891_a_at) / RFU IL23R (11748794_a_at) / Fold change /veh IL23R (11748794_a_at) / RFU TNFAIP8L3 (11732012_x_at) / Fold change /veh TNFAIP8L3 (11732012_x_at) / RFU MBOAT4 (11741988_at) / Fold change /veh MBOAT4 (11741988_at) / RFU 11764193_at / Fold change /veh 11764193_at / RFU TMEM53 (11763286_at) / Fold change /veh TMEM53 (11763286_at) / RFU MAGEB2 (11727129_at) / Fold change /veh MAGEB2 (11727129_at) / RFU TMEM200A (11744735_a_at) / Fold change /veh TMEM200A (11744735_a_at) / RFU CCDC152 (11751479_a_at) / Fold change /veh CCDC152 (11751479_a_at) / RFU FAM211A (11726209_a_at) / Fold change /veh FAM211A (11726209_a_at) / RFU RGS16 (11746705_a_at) / Fold change /veh RGS16 (11746705_a_at) / RFU VCAN (11755009_s_at) / Fold change /veh VCAN (11755009_s_at) / RFU RHOB (11743442_s_at) / Fold change /veh RHOB (11743442_s_at) / RFU RGS16 (11720943_a_at) / Fold change /veh RGS16 (11720943_a_at) / RFU RGS16 (11720944_at) / Fold change /veh RGS16 (11720944_at) / RFU, VPS4B / Fold change vs veh, VPS4B / RFU, CREB1 / Fold change vs veh, CREB1 / RFU, DNAJC13 / Fold change vs veh, DNAJC13 / RFU, GNAQ / Fold change vs veh, GNAQ / RFU, CDK5R1 / Fold change vs veh, CDK5R1 / RFU, ZRANB3 / Fold change vs veh, ZRANB3 / RFU, CUL4A / Fold change vs veh, CUL4A / RFU, CCNY / Fold change vs veh, CCNY / RFU, UFL1 / Fold change vs veh, UFL1 / RFU, COG3 / Fold change vs veh, COG3 / RFU, DIAPH2 / Fold change vs veh, DIAPH2 / RFU, SKA2 / Fold change vs veh, SKA2 / RFU, AFF3 / Fold change vs veh, AFF3 / RFU, LMF1 / Fold change vs veh, LMF1 / RFU, IPO11 / Fold change vs veh, IPO11 / RFU, DFFB / Fold change vs veh, DFFB / RFU, FOXP1 / Fold change vs veh, FOXP1 / RFU, CARD8 / Fold change vs veh, CARD8 / RFU, STRN3 / Fold change vs veh, STRN3 / RFU, ADK / Fold change vs veh, ADK / RFU, RASSF2 / Fold change vs veh, RASSF2 / RFU, WIPF1 / Fold change vs veh, WIPF1 / RFU, LARP1B / Fold change vs veh, LARP1B / RFU, RASA1 / Fold change vs veh, RASA1 / RFU, RB1 / Fold change vs veh, RB1 / RFU, PPFIA1 / Fold change vs veh, PPFIA1 / RFU, MAT2A / Fold change vs veh, MAT2A / RFU, CCT5 / Fold change vs veh, CCT5 / RFU, WDR92 / Fold change vs veh, WDR92 / RFU, CUX1 / Fold change vs veh, CUX1 / RFU, TTC7A / Fold change vs veh, TTC7A / RFU, TMEM135 / Fold change vs veh, TMEM135 / RFU, DEPTOR / Fold change vs veh, DEPTOR / RFU, CPM / Fold change vs veh, CPM / RFU, DNAJB6 / Fold change vs veh, DNAJB6 / RFU, CACNA2D3 / Fold change vs veh, CACNA2D3 / RFU, DTX4 / Fold change vs veh, DTX4 / RFU, TFCP2 / Fold change vs veh, TFCP2 / RFU, GMCL1 /// GMCL1P1 / Fold change vs veh, GMCL1 /// GMCL1P1 / RFU, AEBP2 / Fold change vs veh, AEBP2 / RFU, SNHG1 /// SNORD22 /// SNORD25 /// SNORD26 /// SNORD27 /// SNORD28 /// SNORD29 /// SNORD31 / Fold change vs veh, SNHG1 /// SNORD22 /// SNORD25 /// SNORD26 /// SNORD27 /// SNORD28 /// SNORD29 /// SNORD31 / Fold change (Aza/veh), C12orf56 (ProbeSet 11735607_a_at) / Fold change (ACY-1035/veh), C12orf56 (ProbeSet 11735607_a_at) / Fold change (Aza/veh), FGFR1OP (ProbeSet 11751329_s_at) / Fold change (ACY-1035/veh), FGFR1OP (ProbeSet 11751329_s_at) / Fold change (Aza/veh), VPS36 (ProbeSet 11739960_a_at) / Fold change (ACY-1035/veh), VPS36 (ProbeSet 11739960_a_at) / RFU SYPL1 (11715823_x_at) / Fold change /veh SYPL1 (11715823_x_at) / RFU IGFBP7 (11715501_s_at) / Fold change /veh IGFBP7 (11715501_s_at) / RFU REEP3 (11722064_at) / Fold change /veh REEP3 (11722064_at) / RFU IGLL1 (11728026_x_at) / Fold change /veh IGLL1 (11728026_x_at): dose or concentration left out as unconfirmed
Details: MV-4-11 cells, 48 hours

## Nc1ccc(-c2cccs2)cc1NC(=O)c1ccc2c(c1)cc(C1CC1)n2CCN1CCOCC1 [ACY-1035]
  Fold change /veh KRT8 (11758188_x_at): 1.06
